The test deals with T1, KdpFABC (nucleotide / vanadate rows, site in KdpB) (Escherichia coli, UniProt P03960, D307N).
T1 construct: heterotetrameric complex, His-tagged KdpC, pBXC3H vector, produced in E. coli LB2003 (lacks endogenous K+ uptake systems), purified; Potassium-transporting ATPase KdpC subunit; Potassium-transporting ATPase KdpF subunit
As to the kind of experiment: cryo-EM structure, […] Å. In kind it is binding. To be noted: 5 mM AMPPCP, 50 mM KCl; between N and P domains of KdpB, E1·ATP state.

The structures appear in SMILES notation.

T1 sequence (P03960 whole entry D307N): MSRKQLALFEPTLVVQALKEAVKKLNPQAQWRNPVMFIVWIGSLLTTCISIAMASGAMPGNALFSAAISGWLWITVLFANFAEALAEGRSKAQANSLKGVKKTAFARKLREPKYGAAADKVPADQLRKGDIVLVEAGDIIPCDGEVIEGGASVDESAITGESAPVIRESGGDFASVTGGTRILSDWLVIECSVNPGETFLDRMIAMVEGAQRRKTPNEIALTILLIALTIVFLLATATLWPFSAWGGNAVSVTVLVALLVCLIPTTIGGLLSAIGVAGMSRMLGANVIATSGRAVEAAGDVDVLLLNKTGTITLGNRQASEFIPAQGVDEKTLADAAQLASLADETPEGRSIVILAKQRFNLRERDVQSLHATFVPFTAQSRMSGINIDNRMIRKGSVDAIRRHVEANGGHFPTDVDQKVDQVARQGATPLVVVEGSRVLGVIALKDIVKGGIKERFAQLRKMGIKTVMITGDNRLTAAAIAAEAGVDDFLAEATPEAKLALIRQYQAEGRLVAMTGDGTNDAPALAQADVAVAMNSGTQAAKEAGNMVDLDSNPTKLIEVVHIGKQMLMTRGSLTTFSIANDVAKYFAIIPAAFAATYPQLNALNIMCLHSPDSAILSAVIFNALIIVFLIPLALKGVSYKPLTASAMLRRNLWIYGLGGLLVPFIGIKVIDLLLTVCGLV
T1 sequence (P03959 whole entry partner): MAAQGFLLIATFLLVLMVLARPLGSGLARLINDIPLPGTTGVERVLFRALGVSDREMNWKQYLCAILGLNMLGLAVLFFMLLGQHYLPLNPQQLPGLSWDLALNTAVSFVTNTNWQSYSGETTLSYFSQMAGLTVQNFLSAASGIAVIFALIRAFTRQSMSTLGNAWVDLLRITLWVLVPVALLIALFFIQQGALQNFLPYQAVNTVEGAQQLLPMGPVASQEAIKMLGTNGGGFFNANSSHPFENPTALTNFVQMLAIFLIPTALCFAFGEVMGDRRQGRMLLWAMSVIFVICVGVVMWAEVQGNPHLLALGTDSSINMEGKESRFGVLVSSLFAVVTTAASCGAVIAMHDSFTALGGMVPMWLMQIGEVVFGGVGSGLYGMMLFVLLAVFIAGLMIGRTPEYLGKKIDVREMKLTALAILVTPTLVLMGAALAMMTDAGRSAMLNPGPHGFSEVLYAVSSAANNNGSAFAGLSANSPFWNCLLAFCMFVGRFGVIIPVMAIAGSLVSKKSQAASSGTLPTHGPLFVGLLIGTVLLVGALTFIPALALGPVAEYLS
T1 sequence (P03961 whole entry partner): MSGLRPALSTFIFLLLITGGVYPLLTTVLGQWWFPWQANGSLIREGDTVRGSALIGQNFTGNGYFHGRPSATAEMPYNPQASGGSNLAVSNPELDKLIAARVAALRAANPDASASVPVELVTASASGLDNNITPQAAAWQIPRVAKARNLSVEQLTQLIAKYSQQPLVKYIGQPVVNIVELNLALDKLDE
T1 sequence (P36937 whole entry partner): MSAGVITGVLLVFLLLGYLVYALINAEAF

Turning to `Nc1ncnc2c1ncn2[C@@H]1O[C@H](COP(=O)(O)OP(=O)(O)CP(=O)(O)O)[C@@H](O)[C@H]1O` [AMPPCP], the “cryo-EM structure, 3.1 Å” value was “The nucleotide AMPPCP is coordinated between the N and P domains”.
